System: Mild to Moderate Osteoarthritis of the Knee
Assay: Phase 2 study: WOMAC joint stiffness subscale score
Assay type: in vivo, human
Conditions: for Change of WOMAC Joint Stiffness score from baseline (±SEM) / Percentage of improvement from baseline, WOMAC Joint Stiffness score: all patients taken as active
Excerpt: This is a Phase 2, multicenter, randomized, double blind (within dose), placebo controlled, parallel group, proof of concept, and dose range finding study to evaluate the efficacy, safety, and PK of 2-(diethylamino)ethyl 2-(4-isobutylphenyl)propionate hydrochloride spray in adult subjects with clinically symptomatic mild to moderate OA of the knee. For subjects with bilateral knee pain, both knees will be treated, but the most symptomatic knee (i.e., the most painful knee as measured by the Western Ontario and McMaster University Osteoarthritis Index [WOMAC® 3.1] pain subscale score at Screening) will be designated as the target knee for efficacy analyses. For subjects with unilateral knee pain, only the symptomatic (target) knee will be treated.
After a Screening Period of up to 3 weeks and radiographic evaluation of the target knee joint space, a subject will be randomly assigned to 1 of 3 treatment groups in a 1:1:1 ratio with a 2:1 ratio of active:placebo within each treatment group (ie, 2 subjects to active treatment and 1 subject to placebo): • Group A: 8.75 mg 2-(diethylamino)ethyl 2-(4-isobutylphenyl)propionate/knee (2 sprays/knee, one spray to the medial surface and one spray to the lateral surface of the knee), twice daily (BID, approximately every 12 hours; n=50) or placebo (2 sprays/knee), BID (approximately every 12 hours; n=25) for a total of 4 sprays per knee per day; • Group B: 17.5 mg 2-(diethylamino)ethyl 2-(4-isobutylphenyl)propionate/knee (4 sprays/knee, one spray to the medial surface and one spray to the lateral surface of the knee, and one spray to front and one spray to the back of the knee), BID (approximately every 12 hours; n=50) or placebo (4 sprays/knee), BID (approximately every 12 hours; n=25) for a total of 8 sprays per knee per day; • Group C: 35 mg 2-(diethylamino)ethyl 2-(4-isobutylphenyl)propionate/knee (8 sprays/knee, each spray is to be applied to a different non-overlapping area around the knee, and the areas are to be uniformly distributed around the knee), BID (approximately every 12 hours; n=50) or placebo (8 sprays/knee), BID (approximately every 12 hours; n=25) for a total of 16 sprays per knee per day.
The VAS version of the WOMAC will be used for the Primary and Secondary Efficacy Endpoints. Efficacy endpoints will be assessed at Screening and Baseline (Day 1) and at the Week 2, Week 4, Week 8, and Week 12/EOS visits.
3.9.2. Secondary Efficacy Endpoints: • 1. Change from Baseline in the WOMAC (VAS) pain subscale score for the target knee at 2, 4, and 8 weeks of treatment; • 2. Change from Baseline in the WOMAC (VAS) stiffness subscale scores for the target knee and WOMAC (VAS) functional ability subscale scores at 2, 4, 8, and 12 weeks of treatment; • 3. Change from Baseline in the overall WOMAC (VAS) score at 2, 4, 8, and 12 weeks of treatment.
The Secondary Efficacy Endpoints, change from Baseline in the WOMAC subscale scores for pain, stiffness, and functional ability, and overall WOMAC score at 2, 4, 8, and 12 weeks of treatment, will be analyzed using the same methods as for the Primary Efficacy Endpoint.
To determine this, we assumed that all patients received 2-(diethylamino)ethyl 2-(4-isobutylphenyl)propionate, active drug treatment (i.e. all patients who received 2-(diethylamino)ethyl 2-(4-isobutylphenyl)propionate or placebo treatment for 12 weeks or mixed up treatment during the 12-week treatment, as 2-(diethylamino)ethyl 2-(4-isobutylphenyl)propionate-treated). Based on this assumption, that is, to treat this trial as an open-label study and that all patients received active treatment, we conducted efficacy analysis using top-line efficacy datasets prepared by CRO and the re-analysis results are presented in the following tables (Tables 29-47). […] (William G. Bensen, Justus J. Fiechtner, James 1. McMillen, et. al. Treatment of Osteoarthritis with Celecoxib. Mayo Clin Proc, November 1999. Vol 74, 1095-1105.)

[1] = 8.75 mg/knee (BID), Follow up (week 13, day 91)
[2] = 8.75 mg/knee (BID), Week 2 (day 14)
[3] = 8.75 mg/knee (BID), Week 4 (day 28)
[4] = 8.75 mg/knee (BID), Week 8 (day 56)
[5] = 8.75 mg/knee (BID), Week 12 (day 84)
[6] = 17.5 mg/knee (BID), Follow up (week 13, day 91)
[7] = 17.5 mg/knee (BID), Week 2 (day 14)
[8] = 17.5 mg/knee (BID), Week 4 (day 28)
[9] = 17.5 mg/knee (BID), Week 8 (day 56)
[10] = 17.5 mg/knee (BID), Week 12 (day 84)
[11] = 35 mg/knee (BID), Follow up (week 13, day 91)
[12] = 35 mg/knee (BID), Week 2 (day 14)
[13] = 35 mg/knee (BID), Week 4 (day 28)

`CCN(CC)CCOC(=O)C(C)c1ccc(CC(C)C)cc1` (stereo not shown) [2-(diethylamino)ethyl 2-(4-isobutylphenyl)propionate] was tested, and the “Change of WOMAC Joint Stiffness score from baseline (±SEM), adjusted by […] of the Testing Drug Amount” value [1] was −39.1(±5.1) mm, the “Percentage of improvement from baseline, WOMAC Joint Stiffness score, adjusted by […] of the Testing Drug Amount” value (“Percentage … of the Testing Drug Amount” for short) [1] was −60.9% and the “Change of WOMAC Joint Stiffness score from baseline (±SEM)” value [1] was −22.8(±3.7) mm. The “Percentage of improvement from baseline, WOMAC Joint Stiffness score” value [1] was −35.5%, the “Change of WOMAC Joint Stiffness score from baseline (±SEM), adjusted by […] of the Testing Drug Amount” value [2] was −20.1(±4.3) mm and the “Percentage … of the Testing Drug Amount” value [2] was −31.2%. The “Change of WOMAC Joint Stiffness score from baseline (±SEM)” value [2] was −11.7(±2.5) mm, the “Percentage of improvement from baseline, WOMAC Joint Stiffness score” value [2] was −18.2% and the “Change of WOMAC Joint Stiffness score from baseline (±SEM), adjusted by […] of the Testing Drug Amount” value [3] was −31.7(±5.7) mm. For the same compound, the “Percentage … of the Testing Drug Amount” value [3] was −49.4%, the “Change of WOMAC Joint Stiffness score from baseline (±SEM)” value [3] was −18.5(±3.3) mm and the “Percentage of improvement from baseline, WOMAC Joint Stiffness score” value [3] was −28.8%. For the same compound, the “Change of WOMAC Joint Stiffness score from baseline (±SEM), adjusted by […] of the Testing Drug Amount” value [4] was −37.6(±6.0) mm, the “Percentage … of the Testing Drug Amount” value [4] was −58.5% and the “Change of WOMAC Joint Stiffness score from baseline (±SEM)” value [4] was −21.9(±3.5) mm. The “Percentage of improvement from baseline, WOMAC Joint Stiffness score” value [4] was −34.1%, the “Change of WOMAC Joint Stiffness score from baseline (±SEM), adjusted by […] of the Testing Drug Amount” value [5] was −38.4(±5.3) mm and the “Percentage … of the Testing Drug Amount” value [5] was −59.7%. The “Change of WOMAC Joint Stiffness score from baseline (±SEM)” value [5] was −22.4(±3.1) mm, the “Percentage of improvement from baseline, WOMAC Joint Stiffness score” value [5] was −34.8% and the “Change of WOMAC Joint Stiffness score from baseline (±SEM), adjusted by […] of the Testing Drug Amount” value [6] was −44.7(±6.2) mm. For the same compound, the “Percentage … of the Testing Drug Amount” value [6] was −65.9%, the “Change of WOMAC Joint Stiffness score from baseline (±SEM)” value [6] was −26.1(±3.6) mm and the “Percentage of improvement from baseline, WOMAC Joint Stiffness score” value [6] was −38.4%. The “Change of WOMAC Joint Stiffness score from baseline (±SEM), adjusted by […] of the Testing Drug Amount” value [7] was −32.2(±4.3) mm, the “Percentage … of the Testing Drug Amount” value [7] was −47.3% and the “Change of WOMAC Joint Stiffness score from baseline (±SEM)” value [7] was −18.8(±2.5) mm. For the same compound, the “Percentage of improvement from baseline, WOMAC Joint Stiffness score” value [7] was −27.6%, the “Change of WOMAC Joint Stiffness score from baseline (±SEM), adjusted by […] of the Testing Drug Amount” value [8] was −40.0(±5.1) mm and the “Percentage … of the Testing Drug Amount” value [8] was −58.8%. For the same compound, the “Change of WOMAC Joint Stiffness score from baseline (±SEM)” value [8] was −23.3(±3.0) mm, the “Percentage of improvement from baseline, WOMAC Joint Stiffness score” value [8] was −34.3% and the “Change of WOMAC Joint Stiffness score from baseline (±SEM), adjusted by […] of the Testing Drug Amount” value [9] was −45.5(±5.3) mm. For the same compound, the “Percentage … of the Testing Drug Amount” value [9] was −66.9%, the “Change of WOMAC Joint Stiffness score from baseline (±SEM)” value [9] was −26.5(±3.1) mm and the “Percentage of improvement from baseline, WOMAC Joint Stiffness score” value [9] was −39.0%. The “Change of WOMAC Joint Stiffness score from baseline (±SEM), adjusted by […] of the Testing Drug Amount” value [10] was −51.1(±5.8) mm, the “Percentage … of the Testing Drug Amount” value [10] was −75.1% and the “Change of WOMAC Joint Stiffness score from baseline (±SEM)” value [10] was −29.8(±3.4) mm. For the same compound, the “Percentage of improvement from baseline, WOMAC Joint Stiffness score” value [10] was −43.8%, the “Change of WOMAC Joint Stiffness score from baseline (±SEM), adjusted by […] of the Testing Drug Amount” value [11] was −41.9(±5.3) mm and the “Percentage … of the Testing Drug Amount” value [11] was −67.4%. The “Change of WOMAC Joint Stiffness score from baseline (±SEM)” value [11] was −24.4(±3.1) mm, the “Percentage of improvement from baseline, WOMAC Joint Stiffness score” value [11] was −39.3% and the “Change of WOMAC Joint Stiffness score from baseline (±SEM), adjusted by […] of the Testing Drug Amount” value [12] was −19.3(±4.6) mm. For the same compound, the “Percentage … of the Testing Drug Amount” value [12] was −31.2%, the “Change of WOMAC Joint Stiffness score from baseline (±SEM)” value [12] was −11.3(±2.7) mm and the “Percentage of improvement from baseline, WOMAC Joint Stiffness score” value [12] was −18.2%. The “Change of WOMAC Joint Stiffness score from baseline (±SEM), adjusted by […] of the Testing Drug Amount” value [13] was −30.2(±5.0) mm, the “Percentage … of the Testing Drug Amount” value [13] was −48.5% and the “Change of WOMAC Joint Stiffness score from baseline (±SEM)” value [13] was −17.6(±2.9) mm. For the same compound, the “Percentage of improvement from baseline, WOMAC Joint Stiffness score” value [13] was −28.3%.
